# Results as given in US7435872B2, “Role of p62 in aging-related disease” (Samsung Electronics, Co., Ltd., priority 2002, dated 2008).
# Square brackets hold non-standard residues; d marks the D form. Peptide text beside a SMILES is read from it. * marks the point of attachment. Nle = CCCC[C@H](N)C(=O)O; Cbz = O=C(OCc1ccccc1)*
# How the values were obtained:
# [1] = tested on: p62+/+ and p62-/- mouse embryo fibroblast (MEF); test: Cell viability by MTT assay after glutathione depletion; format: cell-based; details: different concentrations of DEM or BSO; p62-null versus wild type MEFs
# Description: (§1) FIGS. 44A-44B show effects of glutathione depletion on cell viability in p62+/+ and p62−/− mouse embryo fibroblast (MEF). Cell viability was assessed with a methylthiazolium (MTT) assay, which measures mitochondrial dehydrogenase activity of viable cells spectrophotometrically. MEF (3×10^3 cells/well) in 96-well plates were treated with different concentrations of DEM (A) or BSO (B) washed with PBS and then incubated with 0.5 mg/ml MTT in PBS for 4 h. To solubilize the formazan products, […] DMSO was added. The absorption values at 570 nm were determined.
# as §1, with “In addition to the above, FIGS.” for “FIGS.”, “determined. […] This death of p62-null MEFs is an apoptotic process (FIG. 48). Thus, p62 appears to have the function of regulating cellular redox status and/or cellular reactive oxygen species (ROS) generation and scavenging systems.” for “determined.”
# [2] = tested on: mouse embryonic fibroblasts (MEFs); test: Ubiquitin-positive inclusion formation in MEFs; format: cell-based; parameters: dose or concentration left out as unconfirmed; details: 12 hours
# Source text: FIGS. 37A-37B show p62 aggregates formed in MEF in the presence of GSH-depletor. […] Bar=10 μm.
# Ubiquitin-p62 inclusion is formed in mouse embryonic fibroblasts. […] MEFs from p62 null embryos were transfected with a p62 expression vector.
# Further, p62-positive intracellular inclusion are also formed by oxidative stress. For instance, FIGS. 37A-37B show the formation of p62- or ubiquitin-positive aggregates in MEF in the presence of glutathione (GSH) depletory, diethylmaleate (DEM). […] Thus, p62 has a function to collect misfolded and/or ubiquitinated intracellular proteins and make intracellular inclusions.
# [3] = tested on: p62 gene; test: Activation of the p62 gene, immunoblot and RNA analysis; format: cell-based; details: COS7 cells, 20 mM LLnL, with or without actinomycin D
# Source text: Equivalent loading was confirmed by anti-beta-actin immunoblotting. […] Equivalent loading of RNA was confirmed by staining 28S and 18S ribosomal RNA with ethidium bromide (lower panel).
# [4] = tested on: HEK 293 cells; test: Colocalization of p62 with multi-ubiquitin chain; format: cell-based; details: increasing concentrations of LLnL, 16 hours
# [5] = tested on: COS7 cells; test: Sequestosome (p62 inclusion) formation, anti-p62 immunostaining; parameters: p62 accumulation in sequestosome / cellular inclusion formation in the presence of translational inhibitor: dose or concentration left out as unconfirmed; details: 12 hours; for formation of sequestosome: 20 mM ALLN, 5 mM lactacystin, 10 mM MG 132, 50 nM epoxomicin
# [6] = tested on: COS7 cells; test: p62 level in triton X-100 soluble and insoluble fractions, immunoblot; format: cell-based; parameters: dose or concentration left out as unconfirmed; details: plus cycloheximide
compound,measurement,setting,value
"CCCCS(=N)(=O)CCC(N)C(=O)O (stereo not shown) [BSO, buthioninesulfoximine]",cell viability (MTT) on glutathione depletion,[1],p62-null MEFs die more readily compared with wild type MEFs
CCCC[C@@H](C=O)NC(=O)[C@H](CC(C)C)NC(=O)[C@H](CC(C)C)NC(C)=O [LLnL] (Ac-Leu-Leu-[Nle]-aldehyde),"ubiquitin-positive inclusion formation, p62-heterozygote MEF",[2],can form the inclusion but less efficiently
same,"ubiquitin-positive inclusion formation, p62-null MEF",[2],cannot form the inclusion at all
same,"ubiquitin-positive inclusion formation, p62 wild type MEF",[2],formed ubiquitin-positive inclusions well
same,p62 gene activation / p62 level,[3],activation of the p62 gene
same,colocalization of p62 with multi-ubiquitin chain,[4],colocalization of p62 with multi-ubiquitin chain
same,p62 accumulation in sequestosome,[5],p62 accumulates in sequestosome
same,formation of sequestosome,[5],can induce formation of sequestosome
CC(C)C[C@@H](C=O)NC(=O)[C@H](CC(C)C)NC(=O)[C@H](CC(C)C)NC(=O)OCc1ccccc1 [MG 132] (Cbz-Leu-Leu-Leu-aldehyde),formation of sequestosome,[5],can induce formation of sequestosome
C[C@@H]1C[C@@H]([C@H](O)CC2CC(=O)NC(=O)C2)C(=O)[C@@H](C)C1 [cycloheximide],p62 cellular level,[6],not increased
same,cellular inclusion formation in the presence of translational inhibitor,[5]; plus cycloheximide,not formed
CC[C@H](C)[C@H](NC(=O)[C@H]([C@@H](C)CC)N(C)C(C)=O)C(=O)N[C@H](C(=O)N[C@@H](CC(C)C)C(=O)[C@@]1(C)CO1)[C@@H](C)O [epoxomicin],formation of sequestosome,[5],can induce formation of sequestosome
CC(=O)N[C@@H](CSC(=O)[C@]1([C@@H](O)C(C)C)NC(=O)[C@H](C)[C@@H]1O)C(=O)O [lactacystin],formation of sequestosome,[5],can induce formation of sequestosome
